Literature values in paper PMC6062831 (ACS Central Science, 2018).
Like-named read-outs stand apart in the source and are kept apart here.

Columns and labels:
Escherichia coli GUS = conditions: cited from earlier work
human GUS ortholog = conditions: cited from earlier work

SMILES	Ki (Escherichia coli GUS; read-out: Ki against Escherichia coli GUS) [µM]	inhibition of human GUS ortholog (human GUS ortholog)	Ki (Escherichia coli GUS; read-out: Ki against E. coli GUS) [µM]
O=C(O)[C@@H](O)[C@H]1OC(=O)[C@H](O)[C@H]1O [D-glucaro-1,4-lactone]	19	potent inhibitors	
O=C(O)[C@@H]1[C@@H](O)[C@H](O)[C@@]2(O)CC[C@@H]1N2 [uronic-noeurostegine]		potent inhibitors	0.06
